# Key:
# [1] = Treatment-emergent adverse events, safety population; format: in vivo, healthy adult volunteers; conditions: for Ataxia / Blood creatinine increased / Dizziness / Glycosuria / Proteinuria / Red blood cells urine / Renal and urinary disorders / White blood cells urine positive / Blood calcium decreased / Headache / Investigations / Lymphocyte count decreased / Nervous system disorders / Number of Subjects with at Least One Adverse Event / Paresthesia / Prothrombin time prolonged / Respiratory, thoracic and mediastinal disorders / Cough: TEAE, subjects n (%)
# Protocol: (§1) Safety assessments for TEAEs were conducted, including physical examinations (including neurological evaluations), […], vital signs, clinical laboratory tests, selected biomarkers for acute kidney injury (see section on kidney biomarkers), spirometry, and ECG measurements (see Supplementary Data S5 and S6 for clinical laboratory evaluations and schedule of events). If symptoms of ataxia were present, SARA (Scale for the Assessment and Rating of Ataxia, according to Schmitz-Hübsch et al.) assessment forms were completed to assess their severity.
# [2] = Neurotoxicity (paresthesias, ataxia, SARA scores); format: in vivo, healthy adult volunteers; design: key to SARA score: Nose–finger—right / SARA score: Nose–finger—left: 0: no tremor; 0.5: tremor with an amplitude < 2 cm (unilateral); 1: tremor with an amplitude < 2 cm (bilateral); key to SARA score: Fast alternating hand movements—right / SARA score: Fast alternating hand movements—left / SARA score: Heel–shin slide—right / SARA score: Heel–shin slide—left / SARA score: Sitting / SARA score: Speech disturbance: 0: normal; key to SARA score: Finger chase—right / SARA score: Finger chase—left: 0: normal, no dysmetria; 0.5: dysmetria, under/overshooting target < 5 cm (unilateral); 1: dysmetria, under/overshooting target < 5 cm (bilateral); key to Cumulative SARA Score / SARA score: Gait / SARA score: Stance: normal, able to stand in tandem for >10s; able to stand with feet together without sway, but not in tandem for >10s; 2: able to stand with feet together for >10s, but only with sway; conditions: for Cumulative SARA Score / SARA score: Fast alternating hand movements—left / SARA score: Fast alternating hand movements—right / SARA score: Finger chase—left / SARA score: Finger chase—right / SARA score: Gait / SARA score: Heel–shin slide—left / SARA score: Heel–shin slide—right / SARA score: Nose–finger—left / SARA score: Nose–finger—right / SARA score: Sitting / SARA score: Speech disturbance / SARA score: Stance: highest score for any visit
# Protocol: as §1
substance,measurement,setting,value
colistimethate sodium [CMS],Ataxia,[1]; Cohort 1 (N = 9),0
same,Blood creatinine increased,[1]; Cohort 1 (N = 9),0
same,Dizziness,[1]; Cohort 1 (N = 9),0
same,Glycosuria,[1]; Cohort 1 (N = 9),0
same,Proteinuria,[1]; Cohort 1 (N = 9),1 (11.1%)
same,Red blood cells urine,[1]; Cohort 1 (N = 9),0
same,Renal and urinary disorders,[1]; Cohort 1 (N = 9),1 (11.1%)
same,White blood cells urine positive,[1]; Cohort 1 (N = 9),0
same,Blood calcium decreased,[1]; Cohort 2 (N = 10),0
same,Blood creatinine increased,[1]; Cohort 2 (N = 10),1 (10.0%)
same,Glycosuria,[1]; Cohort 2 (N = 10),0
same,Headache,[1]; Cohort 2 (N = 10),5 (50.0%)
same,Investigations,[1]; Cohort 2 (N = 10),6 (60.0%)
same,Lymphocyte count decreased,[1]; Cohort 2 (N = 10),1 (10.0%)
same,Nervous system disorders,[1]; Cohort 2 (N = 10),10 (100.0%)
same,Number of Subjects with at Least One Adverse Event,[1]; Cohort 2 (N = 10),10 (100.0%)
same,Paresthesia,[1]; Cohort 2 (N = 10),10 (100.0%)
same,Prothrombin time prolonged,[1]; Cohort 2 (N = 10),3 (30.0%)
same,Red blood cells urine,[1]; Cohort 2 (N = 10),1 (10.0%)
same,"Respiratory, thoracic and mediastinal disorders",[1]; Cohort 2 (N = 10),3 (30.0%)
same,Ataxia,[1]; Cohort 3 (N = 12),10 (83.3%)
same,Blood calcium decreased,[1]; Cohort 3 (N = 12),4 (33.3%)
same,Cough,[1]; Cohort 3 (N = 12),2 (16.7%)
same,Dizziness,[1]; Cohort 3 (N = 12),2 (16.7%)
same,Headache,[1]; Cohort 3 (N = 12),4 (33.3%)
same,Investigations,[1]; Cohort 3 (N = 12),11 (91.7%)
same,Lymphocyte count decreased,[1]; Cohort 3 (N = 12),1 (8.3%)
same,Nervous system disorders,[1]; Cohort 3 (N = 12),11 (91.7%)
same,Number of Subjects with at Least One Adverse Event,[1]; Cohort 3 (N = 12),11 (91.7%)
same,Paresthesia,[1]; Cohort 3 (N = 12),9 (75.0%)
same,Proteinuria,[1]; Cohort 3 (N = 12),7 (58.3%)
same,Prothrombin time prolonged,[1]; Cohort 3 (N = 12),1 (8.3%)
same,Renal and urinary disorders,[1]; Cohort 3 (N = 12),7 (58.3%)
same,"Respiratory, thoracic and mediastinal disorders",[1]; Cohort 3 (N = 12),2 (16.7%)
same,White blood cells urine positive,[1]; Cohort 3 (N = 12),7 (58.3%)
same,Ataxia,[1]; Overall (N = 31),17 (54.8%)
same,Blood calcium decreased,[1]; Overall (N = 31),6 (19.4%)
same,Blood creatinine increased,[1]; Overall (N = 31),5 (16.1%)
same,Cough,[1]; Overall (N = 31),6 (19.4%)
same,Dizziness,[1]; Overall (N = 31),5 (16.1%)
same,Glycosuria,[1]; Overall (N = 31),5 (16.1%)
same,Headache,[1]; Overall (N = 31),14 (45.2%)
same,Investigations,[1]; Overall (N = 31),24 (77.4%)
same,Lymphocyte count decreased,[1]; Overall (N = 31),4 (12.9%)
same,Nervous system disorders,[1]; Overall (N = 31),27 (87.1%)
same,Number of Subjects with at Least One Adverse Event,[1]; Overall (N = 31),30 (96.8%)
same,Paresthesia,[1]; Overall (N = 31),24 (77.4%)
same,Proteinuria,[1]; Overall (N = 31),10 (32.3%)
same,Prothrombin time prolonged,[1]; Overall (N = 31),7 (22.6%)
same,Red blood cells urine,[1]; Overall (N = 31),4 (12.9%)
same,Renal and urinary disorders,[1]; Overall (N = 31),10 (32.3%)
same,"Respiratory, thoracic and mediastinal disorders",[1]; Overall (N = 31),8 (25.8%)
same,White blood cells urine positive,[1]; Overall (N = 31),9 (29.0%)
same,AEs that occurred during Period 1,"[1]; Period 1 (IV), of all AEs",138/287
same,total AEs reported,[1]; overall,287
same,serious TEAE,[1]; resulted in discontinuation of the subject,one serious TEAE of acute kidney injury
same,deaths,[1]; whole study,no deaths
same,ataxia reported,[2]; Cohort 1,no ataxia
same,Cumulative SARA Score,[2]; subject 20012078,1
same,SARA score: Fast alternating hand movements—left,[2]; subject 20012078,0
same,SARA score: Fast alternating hand movements—right,[2]; subject 20012078,0
same,SARA score: Finger chase—left,[2]; subject 20012078,0
same,SARA score: Finger chase—right,[2]; subject 20012078,0
same,SARA score: Gait,[2]; subject 20012078,1
same,SARA score: Heel–shin slide—left,[2]; subject 20012078,0
same,SARA score: Heel–shin slide—right,[2]; subject 20012078,0
same,SARA score: Nose–finger—left,[2]; subject 20012078,0
same,SARA score: Nose–finger—right,[2]; subject 20012078,0
same,SARA score: Sitting,[2]; subject 20012078,0
same,SARA score: Speech disturbance,[2]; subject 20012078,0
same,SARA score: Stance,[2]; subject 20012078,0
same,SARA score: Fast alternating hand movements—left,[2]; subject 20012079,0
same,SARA score: Fast alternating hand movements—right,[2]; subject 20012079,0
same,SARA score: Finger chase—left,[2]; subject 20012079,0.5
same,SARA score: Finger chase—right,[2]; subject 20012079,0
same,SARA score: Gait,[2]; subject 20012079,2
same,SARA score: Heel–shin slide—left,[2]; subject 20012079,0
same,SARA score: Heel–shin slide—right,[2]; subject 20012079,0
same,SARA score: Nose–finger—left,[2]; subject 20012079,0
same,SARA score: Nose–finger—right,[2]; subject 20012079,0
same,SARA score: Sitting,[2]; subject 20012079,0
same,SARA score: Speech disturbance,[2]; subject 20012079,0
same,SARA score: Stance,[2]; subject 20012079,2
same,SARA score: Fast alternating hand movements—left,[2]; subject 20012080,0
same,SARA score: Fast alternating hand movements—right,[2]; subject 20012080,0
same,SARA score: Finger chase—left,[2]; subject 20012080,0
same,SARA score: Finger chase—right,[2]; subject 20012080,0
same,SARA score: Gait,[2]; subject 20012080,3
same,SARA score: Heel–shin slide—left,[2]; subject 20012080,0
same,SARA score: Heel–shin slide—right,[2]; subject 20012080,0
same,SARA score: Nose–finger—left,[2]; subject 20012080,0.5
same,SARA score: Nose–finger—right,[2]; subject 20012080,0.5
same,SARA score: Sitting,[2]; subject 20012080,0
same,SARA score: Speech disturbance,[2]; subject 20012080,0
same,SARA score: Stance,[2]; subject 20012080,2
same,SARA score: Fast alternating hand movements—left,[2]; subject 20012081,0
same,SARA score: Fast alternating hand movements—right,[2]; subject 20012081,0
same,SARA score: Finger chase—left,[2]; subject 20012081,0
same,SARA score: Finger chase—right,[2]; subject 20012081,0.5
same,SARA score: Gait,[2]; subject 20012081,1
same,SARA score: Heel–shin slide—left,[2]; subject 20012081,0
same,SARA score: Heel–shin slide—right,[2]; subject 20012081,0
same,SARA score: Nose–finger—left,[2]; subject 20012081,0
same,SARA score: Nose–finger—right,[2]; subject 20012081,0
same,SARA score: Sitting,[2]; subject 20012081,0
same,SARA score: Speech disturbance,[2]; subject 20012081,0
same,SARA score: Stance,[2]; subject 20012081,0
same,Cumulative SARA Score,[2]; subject 20012082,2
same,SARA score: Fast alternating hand movements—left,[2]; subject 20012082,0
same,SARA score: Fast alternating hand movements—right,[2]; subject 20012082,0
same,SARA score: Finger chase—left,[2]; subject 20012082,0
same,SARA score: Finger chase—right,[2]; subject 20012082,0
same,SARA score: Gait,[2]; subject 20012082,1
same,SARA score: Heel–shin slide—left,[2]; subject 20012082,0
same,SARA score: Heel–shin slide—right,[2]; subject 20012082,0
same,SARA score: Nose–finger—left,[2]; subject 20012082,0
same,SARA score: Nose–finger—right,[2]; subject 20012082,0
same,SARA score: Sitting,[2]; subject 20012082,0
same,SARA score: Speech disturbance,[2]; subject 20012082,0
same,SARA score: Stance,[2]; subject 20012082,1

# Source: PMC9029538, “Dosing Colistimethate Every 8 h Results in Higher Plasma Concentrations of Active Colistin Than Every 12-Hourly Dosing without Increase in Nephrotoxicity: A Phase 1 Pharmacokinetics Trial in Healthy Adult Volunteers” (Antibiotics, 2022)
